Data: ChEMBL document CHEMBL2380255, “Dual targeting of adenosine A(2A) receptors and monoamine oxidase B by 4H-3,1-benzothiazin-4-ones” (J Med Chem, 2013)
Activity calls are given as the source filed them. The calls are words filed in the database; no cut-off is given here.

Key:
[1] = Stability of the compound in DMSO at 1 mg/ml under daylight condition at 20 degC after 7 days by LC-MS analysis; format: physicochemical; conditions: 168 h
[2] = biological target: T1, Amine oxidase [flavin-containing] B (Homo sapiens, UniProt P27338); test: Competitive inhibition of human MAO-B using p-tyramine as substrate at 50 to 300 nM using p-tyramine as substrate incubated for 30 mins prior to substrate addition measured for 45 mins by Lineweaver-burk plot analysis; conditions: 0.75 h
T1 sequence (P27338 whole entry): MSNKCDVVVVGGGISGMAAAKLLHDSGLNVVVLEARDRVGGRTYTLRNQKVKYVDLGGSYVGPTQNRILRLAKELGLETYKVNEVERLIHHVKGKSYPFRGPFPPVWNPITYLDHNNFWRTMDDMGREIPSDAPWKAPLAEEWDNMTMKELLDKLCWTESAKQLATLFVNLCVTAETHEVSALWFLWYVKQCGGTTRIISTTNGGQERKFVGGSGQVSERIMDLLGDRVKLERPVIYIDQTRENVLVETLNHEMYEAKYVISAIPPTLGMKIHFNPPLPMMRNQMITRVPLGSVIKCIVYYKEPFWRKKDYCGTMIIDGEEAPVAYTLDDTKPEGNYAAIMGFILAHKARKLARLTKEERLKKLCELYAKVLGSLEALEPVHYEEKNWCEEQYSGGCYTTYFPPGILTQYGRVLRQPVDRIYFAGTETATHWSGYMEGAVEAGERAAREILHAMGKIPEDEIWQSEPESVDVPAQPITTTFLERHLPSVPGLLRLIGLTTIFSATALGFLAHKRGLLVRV

[3] = biological target: T1, Amine oxidase [flavin-containing] B; test: Reversible inhibition of human MAO-B using p-tyramine as substrate at IC80 incubated for 22 mins followed by substrate addition measured for 5 hrs by fluorescence assay
[4] = Selectivity ratio of IC50 for MAO-B in mitochondria-enriched Sprague-Dawley rat liver fractions to IC50 for recombinant human MAO-B
[5] = biological target: T1, Amine oxidase [flavin-containing] B; test: Inhibition of recombinant human MAO-B expressed in baculovirus-infected insect cells using p-tyramine as substrate incubated for 30 mins prior to substrate addition measured for 45 mins by amplex red reagent-based microplate fluorescence reader analysis; format: cell-based
[6] = biological target: T2, Amine oxidase [flavin-containing] B (Rattus norvegicus, UniProt P19643); test: Inhibition of MAO-B in mitochondria-enriched Sprague-Dawley rat liver fractions using p-tyramine as substrate incubated for 30 mins prior to substrate addition measured for 45 mins by amplex red reagent-based microplate fluorescence reader analysis
T2 sequence (P19643 whole entry): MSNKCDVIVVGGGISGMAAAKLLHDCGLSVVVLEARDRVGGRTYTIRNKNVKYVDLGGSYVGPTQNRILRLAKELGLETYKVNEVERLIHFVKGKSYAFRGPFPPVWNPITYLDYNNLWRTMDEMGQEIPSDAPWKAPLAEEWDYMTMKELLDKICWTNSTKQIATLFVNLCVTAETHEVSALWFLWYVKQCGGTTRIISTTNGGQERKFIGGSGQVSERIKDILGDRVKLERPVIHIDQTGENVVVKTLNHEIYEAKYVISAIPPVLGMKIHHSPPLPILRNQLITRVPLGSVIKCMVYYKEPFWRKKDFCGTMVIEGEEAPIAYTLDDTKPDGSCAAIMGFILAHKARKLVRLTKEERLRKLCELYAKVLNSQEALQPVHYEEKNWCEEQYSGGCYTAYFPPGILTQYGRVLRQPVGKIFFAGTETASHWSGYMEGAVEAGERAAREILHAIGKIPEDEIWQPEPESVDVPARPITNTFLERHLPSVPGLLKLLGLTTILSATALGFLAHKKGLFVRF

Adenosine receptor A2a [7] = biological target: T3, Adenosine receptor A2a (Homo sapiens, UniProt P29274); test: Antagonist activity at human adenosine A2A receptor expressed in CHO cells assessed as decrease in NECA-induced cAMP accumulation up to 20 uM incubated for 10 mins followed by NECA induction for 15 mins measured after 60 mins by liquid scintillation counting analysis in presence of [3H]cAMP; format: functional, cell-based
Adenosine receptor A2a [8] = biological target: T3, Adenosine receptor A2a; test: Antagonist activity at human adenosine A2A receptor expressed in CHO cells assessed as decrease in cAMP accumulation up to 20 uM preincubated for 10 mins measured after 60 mins by liquid scintillation counting analysis in presence of [3H]cAMP; format: functional, cell-based
Homo sapiens [9] = species: Homo sapiens; test: Selectivity ratio of Ki for human recombinant adenosine A1 receptor to Ki for human recombinant adenosine A2A receptor
Homo sapiens [10] = species: Homo sapiens; test: Selectivity ratio of Ki for human recombinant adenosine A3 receptor to Ki for human recombinant adenosine A2A receptor
Homo sapiens [11] = species: Homo sapiens; test: Selectivity ratio of Ki for human recombinant adenosine A2B receptor to Ki for human recombinant adenosine A2A receptor
Adenosine receptor A3 = biological target: T4, Adenosine receptor A3 (Homo sapiens, UniProt P0DMS8); test: Displacement of [3H]PSB-11 from human recombinant adenosine A3 receptor expressed in CHO cells after 60 mins by liquid scintillation counting analysis; format: cell-based
T4 sequence (P0DMS8 whole entry): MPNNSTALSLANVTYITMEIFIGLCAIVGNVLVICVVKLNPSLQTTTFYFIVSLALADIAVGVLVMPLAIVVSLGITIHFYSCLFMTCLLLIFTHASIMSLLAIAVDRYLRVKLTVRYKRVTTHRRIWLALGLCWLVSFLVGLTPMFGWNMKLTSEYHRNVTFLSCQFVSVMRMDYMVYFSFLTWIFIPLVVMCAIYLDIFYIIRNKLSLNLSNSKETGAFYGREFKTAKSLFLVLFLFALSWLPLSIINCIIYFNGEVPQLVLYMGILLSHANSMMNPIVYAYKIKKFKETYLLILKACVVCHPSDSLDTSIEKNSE

Adenosine receptor A2b = biological target: T5, Adenosine receptor A2b (Homo sapiens, UniProt P29275); test: Displacement of [3H]PSB-603 from human recombinant adenosine A2B receptor expressed in CHO cells after 75 mins by liquid scintillation counting analysis; format: cell-based
T5 sequence (P29275 whole entry): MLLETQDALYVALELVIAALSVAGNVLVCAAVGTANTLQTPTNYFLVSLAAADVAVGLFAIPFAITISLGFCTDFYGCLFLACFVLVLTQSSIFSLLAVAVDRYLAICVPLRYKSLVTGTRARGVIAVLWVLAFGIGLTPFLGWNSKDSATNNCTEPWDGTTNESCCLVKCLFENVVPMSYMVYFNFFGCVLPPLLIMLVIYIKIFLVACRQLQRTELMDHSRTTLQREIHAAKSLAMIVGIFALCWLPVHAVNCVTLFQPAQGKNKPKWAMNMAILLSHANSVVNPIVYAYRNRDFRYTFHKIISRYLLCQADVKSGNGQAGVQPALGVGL

Adenosine receptor A2a [12] = biological target: T3, Adenosine receptor A2a; test: Displacement of [3H]MSX2 from human recombinant adenosine A2A receptor expressed in CHO cells after 30 mins by liquid scintillation counting analysis; format: cell-based
Adenosine receptor A1 [13] = biological target: T6, Adenosine receptor A1 (Homo sapiens, UniProt P30542); test: Displacement of [3H]CCPA from human recombinant adenosine A1 receptor expressed in CHO cells after 90 mins by liquid scintillation counting analysis; format: cell-based
T6 sequence (P30542 whole entry): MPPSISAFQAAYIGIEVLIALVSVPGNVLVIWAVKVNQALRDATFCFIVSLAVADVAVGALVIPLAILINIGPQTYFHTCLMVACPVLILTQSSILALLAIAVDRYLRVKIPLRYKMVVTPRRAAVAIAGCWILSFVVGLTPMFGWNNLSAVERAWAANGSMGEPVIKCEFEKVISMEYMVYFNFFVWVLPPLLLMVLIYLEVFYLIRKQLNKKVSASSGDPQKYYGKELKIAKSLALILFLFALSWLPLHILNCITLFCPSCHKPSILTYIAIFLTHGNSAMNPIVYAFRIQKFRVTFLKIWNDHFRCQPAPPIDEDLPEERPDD

Adenosine receptor A2a [14] = biological target: Adenosine receptor A2a (Rattus norvegicus, UniProt P30543); test: Displacement of [3H]MSX2 from adenosine A2A receptor in rat brain striatal membranes after 30 mins by liquid scintillation counting analysis; format: cell membranes, Membrane
Adenosine receptor A1 [15] = biological target: T7, Adenosine receptor A1 (Rattus norvegicus, UniProt P25099); test: Displacement of [3H]CCPA from adenosine A1 receptor in rat brain cortical membranes after 90 mins by liquid scintillation counting analysis; format: cell membranes, Membrane
T7 sequence (P25099 whole entry): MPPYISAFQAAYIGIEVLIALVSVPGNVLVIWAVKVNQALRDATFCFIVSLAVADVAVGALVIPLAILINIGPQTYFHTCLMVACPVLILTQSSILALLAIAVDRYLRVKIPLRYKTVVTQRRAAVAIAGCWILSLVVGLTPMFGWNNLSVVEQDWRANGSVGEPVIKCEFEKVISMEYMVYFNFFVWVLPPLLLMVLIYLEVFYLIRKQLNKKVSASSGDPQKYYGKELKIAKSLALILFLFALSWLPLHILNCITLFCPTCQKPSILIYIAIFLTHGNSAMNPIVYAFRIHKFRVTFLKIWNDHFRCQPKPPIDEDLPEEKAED

[16] = biological target: T1, Amine oxidase [flavin-containing] B; test: Ratio of selegiline IC50 to compound IC50 for recombinant human MAO-B

T3 sequence (P29274 whole entry): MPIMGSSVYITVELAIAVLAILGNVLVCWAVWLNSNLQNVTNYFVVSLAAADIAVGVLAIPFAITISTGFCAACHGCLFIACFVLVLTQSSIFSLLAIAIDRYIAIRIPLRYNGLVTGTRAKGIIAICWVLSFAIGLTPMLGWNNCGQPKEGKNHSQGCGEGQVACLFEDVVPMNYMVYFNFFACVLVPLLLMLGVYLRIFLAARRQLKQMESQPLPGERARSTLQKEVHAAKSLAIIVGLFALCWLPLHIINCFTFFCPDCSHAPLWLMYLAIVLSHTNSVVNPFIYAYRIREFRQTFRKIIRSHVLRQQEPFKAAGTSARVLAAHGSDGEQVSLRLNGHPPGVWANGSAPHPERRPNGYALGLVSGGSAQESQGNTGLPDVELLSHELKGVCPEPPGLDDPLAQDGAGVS
Chain of Adenosine receptor A2a (Rattus norvegicus, UniProt P30543) (P30543 whole entry): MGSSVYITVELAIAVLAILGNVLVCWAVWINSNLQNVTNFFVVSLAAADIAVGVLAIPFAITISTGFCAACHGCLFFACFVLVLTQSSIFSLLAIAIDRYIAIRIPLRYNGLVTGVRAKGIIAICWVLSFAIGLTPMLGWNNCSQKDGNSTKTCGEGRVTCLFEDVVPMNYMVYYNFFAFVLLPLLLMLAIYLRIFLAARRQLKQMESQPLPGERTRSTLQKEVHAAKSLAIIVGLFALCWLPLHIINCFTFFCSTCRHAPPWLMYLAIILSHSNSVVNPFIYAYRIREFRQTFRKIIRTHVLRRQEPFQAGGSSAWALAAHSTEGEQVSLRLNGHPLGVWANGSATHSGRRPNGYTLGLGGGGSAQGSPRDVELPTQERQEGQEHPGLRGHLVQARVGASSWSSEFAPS

SMILES | Stability [1] | inhibition (INH) [2] | inhibition (INH) [3] | Ratio IC50 [4] | IC50 [5] | IC50 [6] | Activity (Adenosine receptor A2a [7]) | Activity (Adenosine receptor A2a [8]) | Ratio Ki (Homo sapiens [9]) | Ratio Ki (Homo sapiens [10]) | Ratio Ki (Homo sapiens [11]) | Ki (Adenosine receptor A3) | Ki (Adenosine receptor A2b) | Ki (Adenosine receptor A2a [12]) | Ki (Adenosine receptor A1 [13]) | Ki (Adenosine receptor A2a [14]) | Ki (Adenosine receptor A1 [15]) | Ratio IC50 [16]
O=C(CCCc1ccccc1)Nc1nc2ccccc2c(=O)s1 | Stable | Active | Active | 1.4 | 34.9 nM | 186 nM | Active | Active | 63 | > 25 | > 25 | > 1000 nM | > 1000 nM | 39.5 nM | 2500 nM | 423 nM | 229 nM | 
O=C(COc1cccc(Cl)c1)Nc1nc2ccccc2c(=O)s1 |  |  |  | 400 | 1.63 nM | 661 nM |  |  |  |  |  | > 1000 nM | > 1000 nM |  |  | > 10000 nM | > 10000 nM | 4
